# Values quoted from earlier work as cited in patent US20240268433A1, “Nutritional Compositions for Preserving Muscle Mass” (Dutch Medical Food B.V., priority 2021, published 2024).
# Experiments:
# [1] = system: elderly adults exposed to bedrest; settings: bed rest induced muscle atrophy
# [2] = system: female individuals that complain about their sleep quality
# [3] = system: adults between the age of 25 and 59 years
# GABAA receptor = settings: chicken; administered with serine
molecule,measurement,setting,value
"CC(C)(O)CC(=O)O [HMB, Beta-hydroxy beta-methylbutyrate]",derangements in skeletal muscle metabolism and mitochondria,[1],able to attenuate and prevent derangements in skeletal muscle metabolism and mitochondria
NCC(=O)O [glycine],daytime sleepiness,[2]; especially in the morning,positive effect
same,subjective quality of sleep,[2]; ingestion prior to sleep,beneficial effect on the subjective quality of sleep
N[C@@H](CO)C(=O)O [serine],resistance or rebound insomnia after discontinuation of ingestion,[3]; after discontinuation of ingestion,did not appear to suffer from resistance or occurrence of rebound insomnia
same,"quality of sleep (sleep initiation, nighttime awakenings)",[3]; ingestion about 30 minutes before going to sleep,beneficial effect on the quality of sleep
picrotoxin,effect on sedative and hypnotic effect of serine,GABAA receptor,attenuated the sedative and hypnotic effect of serine
